According to patent US11980596B2 (priority 2017, dated 2024):

Legend:
[1] = test system: adult female rats; settings: single intranasal dose; 200-gram rat
[2] = test system: subjects with TRD; settings: post dose
Method: (§1) The Clinician Administered Dissociative States Scale (CADSS) was measured prior to the start of each dose, at 40 minutes, and 1.5 hours postdose.

[3] = test system: subjects with MDD at imminent risk for suicide; assay: Study completion/withdrawal, double-blind phase ([…]2001); type: in vivo, human; settings: esketamine 84 mg; all randomized analysis set, N = 36
Method: Of the 68 subjects in the all randomized analysis set, 19 (27.9%) subjects discontinued from the double-blind phase. More subjects in the esketamine 84 mg group discontinued due to adverse events (5 subjects in the esketamine 84 mg group versus 1 subject in the placebo group) whereas more subjects in the placebo group discontinued due to lack of efficacy (4 subjects in the placebo group versus 1 subject in the esketamine 84 mg group).

[4] = test system: subjects with MDD at imminent risk for suicide; assay: MADRS total score, sustained response (Study […]2001); type: in vivo, human
Excerpt: Primary efficacy variable/Primary Time point: Change from baseline (Day 1, predose) to Day 1, 4-hours postdose in MADRS total score. The MADRS consists of 10 items that cover all of the core depressive symptoms, with each item scoring from 0 (item is not present or is normal) to 6 (severe or continuous presence of the symptom). A higher score represents a more severe condition.
The primary efficacy endpoint is the change in MADRS total score from baseline to Day 1: 4-hours postdose. MADRS total scores range from 0 to 60. […] As this is a phase 2a proof-of-concept study, statistical significance is based on a two-sided alpha level of 0.20. All p-values presented in this document are two-sided.
Sustained response is defined as at least 50% reduction from baseline in MADRS total score with onset on Day 1: 4 hours postdose that is maintained through the end of the double-blind phase (Day 25). Four subjects in the esketamine 84 mg group and 2 subjects in the placebo group had sustained response throughout the double-blind phase.

[5] = test system: adult female rats; assay: Single-dose neuronal toxicity study (neuronal vacuolation), intranasal esketamine (label); settings: rat, in vivo
[6] = test system: CYP2B6, CYP3A4, CYP1A2; assay: CYP induction in human hepatocytes
[7] = test system: patients with treatment-resistant depression (TRD); assay: Vital signs: blood pressure and heart rate (Example 7); type: in vivo, human; settings: post-dose
Method: Adverse events were monitored throughout the study. Other safety assessments (i.e., laboratory tests, vital signs, physical examination) were performed at pre-specified time points. Vital signs, the Clinician Administered Dissociative States Scale (CADSS; Bremner, “Measurement of dissociative states with the clinician-administered dissociative states scale (CADSS)”, J. Traumatic Stress, 1998, 11(1):125-136), and the 4-item positive symptom subscale from the Brief Psychiatric Rating Scale (BPRS; Overall, “The Brief Psychiatric Rating Scale. Psychological Reports”, 1962, 10:799-812) were assessed pre-dose, at 40 minutes, and 2 hours post-dose.

[8] = test system: adult subjects with TRD; settings: post dose
Method: The MOAA/S was used to measure treatment-emergent sedation, with correlation to levels of sedation defined by the American Society of Anesthesiologists (ASA) continuum. The MOAA/S scores range from 0=no response to painful stimulus (corresponds to ASA continuum for general anesthesia) to 5=readily responds to name spoken in normal tone (awake; corresponds to ASA continuum for minimal sedation).
On each intranasal dosing day, the MOAA/S was performed every 15 minutes from pre-dose to t=+1.5 hours post-dose. If the score was ≤3 at any time during the 1.5 hours post-dose interval, the MOAA/S was performed every 5 minutes until a score of 4 is reached (at which point a frequency of every 15 minutes can be resumed until t=+1.5 hours post dose). […] For subjects with a score of 4, the assessment was repeated every 15 minutes. […]
The Modified Observer's Assessment of Alertness/Sedation (MOAA/S) was used to measure treatment-emergent sedation with correlation to levels of sedation defined by the American Society of Anesthesiologists (ASA) continuum. The MOAA/S scores ranged from 0 (No response to painful stimulus; corresponds to ASA continuum for general anesthesia) to 5 (Readily responds to name spoken in normal tone [awake]; corresponding to ASA continuum for minimal sedation).

[9] = test system: patients with TRD; assay: Adverse reactions in SPRAVATO clinical trials (label); type: in vivo, human; settings: up to 4 weeks after cessation of treatment
Method: SPRAVATO was evaluated for safety in 1709 patients diagnosed with treatment resistant depression (TRD) [see Clinical Studies (14.1, 14.2)] from five Phase 3 studies (3 short-term and 2 long-term studies) and one Phase 2 dose-ranging study. Of all SPRAVATO-treated patients in the completed Phase 3 studies, 479 (30%) received at least 6 months of treatment, and 178 (11%) received at least 12 months of treatment.
In short-term studies in adults<65 years old (Study 1 pooled with another 4-week study), the proportion of patients who discontinued treatment because of an adverse reaction was 4.6% in patients who received SPRAVATO plus oral AD compared to 1.4% for patients who received placebo nasal spray plus oral AD. For adults 65 years old, the proportions were 5.6% and 3.1%, respectively. In Study 2, a long-term maintenance study, the discontinuation rates because of an adverse reaction were similar for patients receiving SPRAVATO plus oral AD and placebo nasal spray plus oral AD in the maintenance phase, at 2.6% and 2.1%, respectively.
SPRAVATO can cause nausea and vomiting (Table 7). Most of these events occurred on the day of dosing and resolved the same day, with the median duration not exceeding 1 hour in most subjects across dosing sessions. […]

[10] = test system: subjects with TRD; type: in vivo, human; settings: post dose
Method: Transient blood pressure increases peaked for the esketamine group at approximately 40 minutes post dose and returned closer to predose levels by 1.5 hours post dose.

[11] = test system: subjects with MDD at imminent risk for suicide; assay: Beck Hopelessness Scale (BHS) ([…]2001); type: in vivo, human; settings: for BHS total score: change vs placebo: 84 mg
Excerpt: The BHS is a self-reported measure to assess one's level of negative expectations or pessimism regarding the future. It consists of 20 true-false items that examine the respondent's attitude over the past week by either endorsing a pessimistic statement or denying an optimistic statement. For every statement, each response is assigned a score of 0 or 1. The total BHS score is a sum of item responses and ranges from 0 to 20, with a higher score representing a higher level of hopelessness.

[12] = test system: adult subjects with TRD; settings: post dose; remark: listed apart in the source
Method: Blood pressure and pulse/heart rate measurements were assessed supine with a completely automated device. Manual techniques were used only if an automated device is not available. Blood pressure and pulse/heart rate measurements were preceded by at least 5 minutes of rest in a quiet setting without distractions (e.g., television, cell phones).
Descriptive statistics of temperature, pulse/heart rate, respiratory rate, pulse oximetry, and blood pressure (systolic and diastolic) (supine) values and changes from baseline were summarized at each scheduled time point. The percentage of subjects with values beyond clinically important limits were summarized.

[13] = test system: adult subjects with TRD; settings: post dose; remark: listed apart in the source
Method: The CADSS is an instrument for the measurement of present-state dissociative symptoms, and was administered to assess treatment-emergent dissociative symptoms. The CADSS consists of 23 subjective items, divided into 3 components: Depersonalization (Items 3 to 7, 20, and 23), derealization (Items 1, 2, 8 to 13, 16 to 19, and 21) and amnesia (Items 14, 15, and 22). Participant's responses were coded on a 5-point scale (0=not at all through to 4=extremely).
as §1

[14] = esketamine 84 mg minus placebo, ANCOVA LOCF
[15] = esketamine 84 mg, LOCF, ITT, N = 35
[16] = esketamine 84 mg, LOCF, ITT, N = 35, negative change = improvement
[17] = esketamine 84 mg, predose Day 1, ITT, N = 35

CN[C@]1(c2ccccc2Cl)CCCCC1=O [esketamine, (S)-2-(2-chlorophenyl)-2-(methylamino)cyclohexanone]
Highest dose equivalent with no findings of neuronal vacuolation in the brain [1]: 45 mg/kg | Dissociative and perceptual change symptoms (CADSS) resolved by [2]: ≤ 1.5 h | Withdrawn from double-blind phase: Lack of Efficacy [3]: 1 (2.8%) subjects (%) | MADRS: least-square mean difference from placebo ([4]; 84 mg, Day 1, 4-hours postdose, ANCOVA): −5.3 (2.10) | MADRS total score, change to Day 1 (DB): 4 H, Diff. of LS Means (SE) [4, 14]: −5.3 (2.10) | MADRS total score, change to Day 2 (DB), Diff. of LS Means (SE) [4, 14]: −7.2 (2.85) | MADRS total score, change to End Point (DB), Diff. of LS Means (SE) [4, 14]: −4.5 (3.14) | MADRS total score, Day 1 (DB): 4 H, Median (Range) [4, 15]: 23.0 (7; 48) | MADRS total score, Day 2 (DB), Median (Range) [4, 15]: 18.0 (3; 42) | MADRS total score, End Point (DB), Median (Range) [4, 15]: 8.0 (0; 44) | MADRS total score, Change from Baseline to Day 1 (DB): 4 H, Median (Range) [4, 16]: −14.0 (−32; 1) | MADRS total score, Change from Baseline to Day 2 (DB), Median (Range) [4, 16]: −19.0 (−41; 1) | MADRS total score, Change from Baseline to End Point (DB), Median (Range) [4, 16]: −25.0 (−46; 13) | MADRS total score, Baseline (DB), Median (Range) [4, 17]: 38.0 (27; 49) | Safety margin to clinical exposure at the MRHD of 84 mg/day, AUC [5]: 1.8 times | Safety margin to clinical exposure at the MRHD of 84 mg/day, Cmax [5]: 4.5 times | Induction of CYP1A2 ([6]; hepatocytes): do not induce | Induction of CYP2B6 and CYP3A4 ([6]; human hepatocytes): modest induction effects | Elevated blood pressure returned to the normal range by [7]: ≤ 2 h | Sedation (MOAA/S) resolved by [8]: ≤ 1.5 h | Withdrawal symptoms [9]: no withdrawal symptoms | S-Ketamine QC sample long-term storage stability (at −20° C.): 707 days at −20 °C | S-Ketamine QC sample freeze/thaw stability (freeze (−20° C.)/thaw (room temperature)): 3 freeze (−20° C.)/thaw (room temperature) cycles | S-Ketamine QC sample bench-top stability (room temperature): 18 hours at room temperature | Blood pressure returned closer to predose levels by [10]: ≤ 1.5 h | Time of peak of transient blood pressure increases [10]: approximately 40 minutes | BHS total score: change vs placebo ([11]; Day 1: 4-hours postdose): no statistically significant difference | BHS total score: change vs placebo ([11]; End Point (DB)): statistically superior | BHS total score, change to Day 1 (DB): 4H, Diff. of LS Means (SE) [11, 14]: −1.5 (1.47) | BHS total score, change to End Point (DB), Diff. of LS Means (SE) [11, 14]: −2.3 (1.66) | BHS total score, Day 1 (DB): 4H, Median (Range) [11, 15]: 14.0 (0; 20) | BHS total score, End Point (DB), Mean (SD) [11, 15]: 6.2 (5.96) | BHS total score, End Point (DB), Median (Range) [11, 15]: 4.0 (0; 20) | BHS total score, Change from Baseline to Day 1 (DB): 4H, Mean (SD) [11, 16]: −4.1 (5.63) | BHS total score, Change from Baseline to Day 1 (DB): 4H, Median (Range) [11, 16]: −2.0 (−16; 2) | BHS total score, Change from Baseline to End Point (DB), Median (Range) [11, 16]: −11.0 (−19; 0) | BHS total score, Baseline (DB), Median (Range) [11, 17]: 17.0 (9; 20) | Blood pressure returned to normal range at [12]: 90 min | Time of peak of transient blood pressure increases [12]: approximately 40 minutes | Dissociative and perceptual change symptoms (CADSS) resolved by [13]: ≤ 1.5 h
